Converted amounts (≈) assume the structure as drawn. Like-named read-outs stand apart in the source and are kept apart here.
How the values were obtained:
Assay in all cases: Microdilution assay, MIC
Format in all cases: cell-based
Bacillus subtilis DSM10 = conditions: read-out: MIC B. subtilis DSM10
Experimental: (§1) The tests were performed using the micro dilution method.
(§2) The determination of MIC values was performed according to the ninth edition of the Approved Standard M07-A9 (CLSI. Methods for Dilution Antimicrobial Susceptibility Tests for Bacteria That Grow Aerobically; Approved Standard—Ninth Edition. CLSI document M07-A9. Wayne, Pa.: Clinical and Laboratory Standards Institute; 2012.)
(§3) The test was carried out for four different bacterial strains (E. coli DSM 1116 [gram negative], B. subtilis DSM 10 [gram positive], M. luteus DSM 1790 [gram positive], S. typhimurium TA100 [gram negative]). 20 μL of cryo stock of each strain were inoculated in 20 mL of LB media (Lysogeny broth: 10 g/L peptone, 5 g/L yeast extract, 5 g/L NaCl) followed by incubation over night at 37° C., 200 rpm. The test inoculum was adjusted by the 0.5 McFarland Standard (OD625 from 0.08 to 0.1). Within 15 min of preparation, the adjusted inoculum suspension was diluted in MHBII media (BBL T M Mueller-Hinton Broth II, Becton, Dickinson and Company, N.J./USA) so that each well contained approximately 5×10^5 CFU/mL in a final volume of 100 μL. 95 μL of the inoculum were applied per well and 5 μL of the (diluted) antibiotic substance were added.
(§4) Previously the dry antibiotic compounds were dissolved in DMSO (100%) with a concentration of 2560 μg/mL and the resulting stock solutions were further diluted in DMSO (100%). 5 μL of each antibiotic dilution were applied to the microdilution tray to reach final concentrations of 64 μg/mL to 0.008 μg/mL. One row of each well plate was left as a growth control without antibiotic substances and another row of the microdilution tray was used as sterility control (only MHB II-media). The antimicrobial effect of the solvent (DMSO) was tested by adding 5 μL DMSO to several wells without antibiotics.
(§5) Purity check and cell titer control were performed according to International Standard M07-A9 on Mueller-Hinton II Agar (Mueller Hinton II Broth, 15 g/L agar-agar).
(§6) Both microdilution trays and agar plates were incubated at 37° C. for 20 h and subsequently analyzed visually.

E. coli DSM 1116 = conditions: Escherichia coli, read-out: MIC E. coli DSM1116
Experimental: as §1, §2, §3, §4, §5, §6

S. typhimurium TA100 = conditions: Salmonella enterica, 20 h, read-out: MIC S. typhimurium TA100
Experimental: as §1, §2, §3, §4, §5, §6

[1] = tested on: Micrococcus luteus DSM1790; conditions: read-out: MIC M. luteus DSM1790
Experimental: as §1, §2, §3, §4, §5, §6

MIC (Bacillus subtilis DSM10; DSM10, gram positive, MHBII media, 37° C., 20 h)	MIC (E. coli DSM 1116; DSM1116, gram negative, MHBII media, 37° C., 20 h)	MIC ([1]; DSM1790, gram positive, MHBII media, 37° C., 20 h)	MIC (S. typhimurium TA100; gram negative, MHBII media, 37° C.)	Structure (SMILES)	MIC (Bacillus subtilis DSM10; DSM10, 20 h)	MIC (E. coli DSM 1116; DSM1116, 20 h)	MIC (S. typhimurium TA100)	MIC ([1]; DSM1790, 20 h)
				COc1c(NC(=O)c2ccc(NC(=O)c3ccc(NC(=O)[C@H](CC#N)NC(=O)c4ccc(NC(=O)/C(C)=C/c5ccc(O)cc5)cc4)c(O)c3)c(OC)c2O)ccc(C(=O)O)c1O [Compound 13]	2000 µg/mL (≈ 2330 µM)	2000 µg/mL (≈ 2330 µM)	500 µg/mL (≈ 582 µM)	
				COc1c(NC(=O)c2ccc(NC(=O)c3ccc(NC(=O)[C@H](CC#N)NC(=O)c4ccc(NC(=O)/C(C)=C/c5ccc(O)cc5)cc4)cc3O)c(OC)c2O)ccc(C(=O)O)c1O [Compound 14]	250 µg/mL (≈ 291 µM)	31 µg/mL (≈ 36.1 µM)	16 µg/mL (≈ 18.6 µM)	
				COc1c(NC(=O)c2ccc(NC(=O)c3ccc(NC(=O)[C@@H](Cc4c[nH]cn4)NC(=O)c4ccc(NC(=O)/C(C)=C/c5ccc(O)cc5)cc4)cc3)c(OC)c2O)ccc(C(=O)O)c1O [Compound 15, D-His-albicidin]	1000 µg/mL (≈ 1130 µM)	125 µg/mL (≈ 141 µM)	125 µg/mL (≈ 141 µM)	8000 µg/mL (≈ 9050 µM)
				COc1c(NC(=O)c2ccc(NC(=O)c3ccc(NC(=O)[C@H](Cc4c[nH]nn4)NC(=O)c4ccc(NC(=O)/C(C)=C/c5ccc(F)cc5)cc4)cc3)c(OC)c2O)ccc(C(=O)O)c1O [Compound 18]	125 µg/mL (≈ 141 µM)	31 µg/mL (≈ 35 µM)	≤ 16 µg/mL	250 µg/mL (≈ 282 µM)
				COc1c(NC(=O)c2ccc(NC(=O)c3ccc(NC(=O)[C@H](CN(C)C)NC(=O)c4ccc(NC(=O)c5ccc(O)cc5)cc4)cc3)c(OC)c2O)ccc(C(=O)O)c1O [Compound 19]	4000 µg/mL (≈ 4870 µM)	2000 µg/mL (≈ 2440 µM)	500 µg/mL (≈ 609 µM)	≥ 8000 µg/mL
				CCOc1c(NC(=O)c2ccc(NC(=O)c3ccc(NC(=O)[C@H](Cc4c[nH]nn4)NC(=O)c4ccc(NC(=O)/C(C)=C/c5ccc(O)cc5)cc4)cc3)c(OCC)c2O)ccc(C(=O)O)c1O [Compound 20]	31 µg/mL (≈ 34 µM)	16 µg/mL (≈ 17.5 µM)	16 µg/mL (≈ 17.5 µM)	500 µg/mL (≈ 548 µM)
				COc1c(NC(=O)c2ccc(NC(=O)c3ccc(N(C)C(=O)[C@H](Cc4c[nH]nn4)NC(=O)c4ccc(NC(=O)/C(C)=C/c5ccc(O)cc5)cc4)cc3)c(OC)c2O)ccc(C(=O)O)c1O [Compound 22]	≥ 8000 µg/mL	≥ 8000 µg/mL	2000 µg/mL (≈ 2220 µM)	≥ 8000 µg/mL
				COc1c(NC(=O)c2ccc(NC(=O)c3ccc(NC(=O)[C@H](Cc4c[nH]nn4)NC(=O)c4ccc(NC(=O)/C(C)=C/c5ccc(O)cc5)cc4)c(OC)c3O)c(OC)c2O)ccc(C(=O)O)c1O [Compound 23]	≥ 8000 µg/mL	≥ 8000 µg/mL	2000 µg/mL (≈ 2150 µM)	≥ 8000 µg/mL
				COc1c(NC(=O)c2ccc(NC(=O)c3ccc(NC(=O)[C@H](Cc4cnn[nH]4)NC(=O)c4ccc(NC(=O)/C(C)=C/c5ccc(O)cc5)cc4)c(O)c3)c(OC)c2O)ccc(C(=O)O)c1O [Compound 24]	1000 µg/mL (≈ 1110 µM)	125 µg/mL (≈ 139 µM)	63 µg/mL (≈ 69.9 µM)	8000 µg/mL (≈ 8880 µM)
				COc1c(NC(=O)c2ccc(NC(=O)c3ccc(NC(=O)[C@H](Cc4cnn[nH]4)NC(=O)c4ccc(NC(=O)/C(C)=C/c5ccc(O)cc5)cc4)cc3O)c(OC)c2O)ccc(C(=O)O)c1O [Compound 25]	250 µg/mL (≈ 278 µM)	31 µg/mL (≈ 34.4 µM)	16 µg/mL (≈ 17.8 µM)	4000 µg/mL (≈ 4440 µM)
250 µg/mL (≈ 298 µM)	63 µg/mL (≈ 75 µM)	500 µg/mL (≈ 595 µM)	≤ 16 µg/mL	COc1ccc(C#Cc2ccc(C(=O)N[C@@H](Cc3c[nH]nn3)C(=O)Nc3ccc(C(=O)Nc4ccc(C(=O)Nc5ccc(C(=O)O)c(O)c5OC)c(O)c4OC)cc3)cc2)cc1 [Compound 26]				

From patent US11225465B2, “Albicidin derivatives, their use and synthesis” (TECHNISCHE UNIVERSITÄT BERLIN, priority 2017, dated 2022)
